# Data taken from the kinase profiling compilation of Christmann-Franck et al. (2016).
# How the values were obtained:
# Assay in all cases: Caliper, Mobility shift assay off-chip
# MARK1 (human) = MARK1 (human) (UniProt Q9P0L2)
# CDK2 (human) = CDK2 (human) (UniProt P24941)
# FGFR2 (human) = FGFR2 (human) (UniProt P21802)
# NEK2 (human) = NEK2 (human) (UniProt P51955)
# FYN (human) = FYN (human) (UniProt P06241)
# [1] = system: ABL1 (human), P00519 [Q252H]
# PRKCB2 (human) = PRKCB2 (human) (UniProt P05771)
# HCK (human) = HCK (human) (UniProt P08631)
# ABL2 (human) = ABL2 (human) (UniProt P42684)
# MAP4K4 (human) = MAP4K4 (human) (UniProt O95819)
# PRKCA (human) = PRKCA (human) (UniProt P17252)
# CHEK2 (human) = CHEK2 (human) (UniProt O96017)
# PRKACA (human) = PRKACA (human) (UniProt P17612)
# PDGFRA (human) = PDGFRA (human) (UniProt P16234)
# INSR (human) = INSR (human) (UniProt P06213)
# RPS6KA4 KD1 KD2 (human) = RPS6KA4 KD1 KD2 (human) (UniProt O75676)
# SGK3 (human) = SGK3 (human) (UniProt Q96BR1)
# PRKCH (human) = PRKCH (human) (UniProt P24723)
# [2] = system: ABL1 (human), P00519 [T315I]
# PRKD1 (human) = PRKD1 (human) (UniProt Q15139)
# TSSK1B (human) = TSSK1B (human) (UniProt Q9BXA7)
# ROCK2 (human) = ROCK2 (human) (UniProt O75116)
# SGK1 (human) = SGK1 (human) (UniProt O00141)
# MAPK1 (human) = MAPK1 (human) (UniProt P28482)
# ABL1 (human) = ABL1 (human) (UniProt P00519)
# [3] = system: FGFR2 (human), P21802 [N549H]
# DYRK1A (human) = DYRK1A (human) (UniProt Q13627)
# PRKCB1 (human) = PRKCB1 (human) (UniProt P05771)
# RPS6KB1 (human) = RPS6KB1 (human) (UniProt P23443)
# PIM1 (human) = PIM1 (human) (UniProt P11309)
# AURKA (human) = AURKA (human) (UniProt O14965)
# CAMK2B (human) = CAMK2B (human) (UniProt Q13554)
# CAMK4 (human) = CAMK4 (human) (UniProt Q16566)
# FER (human) = FER (human) (UniProt P16591)
# Chain of ROCK2 (human) (O75116 whole entry, looked up): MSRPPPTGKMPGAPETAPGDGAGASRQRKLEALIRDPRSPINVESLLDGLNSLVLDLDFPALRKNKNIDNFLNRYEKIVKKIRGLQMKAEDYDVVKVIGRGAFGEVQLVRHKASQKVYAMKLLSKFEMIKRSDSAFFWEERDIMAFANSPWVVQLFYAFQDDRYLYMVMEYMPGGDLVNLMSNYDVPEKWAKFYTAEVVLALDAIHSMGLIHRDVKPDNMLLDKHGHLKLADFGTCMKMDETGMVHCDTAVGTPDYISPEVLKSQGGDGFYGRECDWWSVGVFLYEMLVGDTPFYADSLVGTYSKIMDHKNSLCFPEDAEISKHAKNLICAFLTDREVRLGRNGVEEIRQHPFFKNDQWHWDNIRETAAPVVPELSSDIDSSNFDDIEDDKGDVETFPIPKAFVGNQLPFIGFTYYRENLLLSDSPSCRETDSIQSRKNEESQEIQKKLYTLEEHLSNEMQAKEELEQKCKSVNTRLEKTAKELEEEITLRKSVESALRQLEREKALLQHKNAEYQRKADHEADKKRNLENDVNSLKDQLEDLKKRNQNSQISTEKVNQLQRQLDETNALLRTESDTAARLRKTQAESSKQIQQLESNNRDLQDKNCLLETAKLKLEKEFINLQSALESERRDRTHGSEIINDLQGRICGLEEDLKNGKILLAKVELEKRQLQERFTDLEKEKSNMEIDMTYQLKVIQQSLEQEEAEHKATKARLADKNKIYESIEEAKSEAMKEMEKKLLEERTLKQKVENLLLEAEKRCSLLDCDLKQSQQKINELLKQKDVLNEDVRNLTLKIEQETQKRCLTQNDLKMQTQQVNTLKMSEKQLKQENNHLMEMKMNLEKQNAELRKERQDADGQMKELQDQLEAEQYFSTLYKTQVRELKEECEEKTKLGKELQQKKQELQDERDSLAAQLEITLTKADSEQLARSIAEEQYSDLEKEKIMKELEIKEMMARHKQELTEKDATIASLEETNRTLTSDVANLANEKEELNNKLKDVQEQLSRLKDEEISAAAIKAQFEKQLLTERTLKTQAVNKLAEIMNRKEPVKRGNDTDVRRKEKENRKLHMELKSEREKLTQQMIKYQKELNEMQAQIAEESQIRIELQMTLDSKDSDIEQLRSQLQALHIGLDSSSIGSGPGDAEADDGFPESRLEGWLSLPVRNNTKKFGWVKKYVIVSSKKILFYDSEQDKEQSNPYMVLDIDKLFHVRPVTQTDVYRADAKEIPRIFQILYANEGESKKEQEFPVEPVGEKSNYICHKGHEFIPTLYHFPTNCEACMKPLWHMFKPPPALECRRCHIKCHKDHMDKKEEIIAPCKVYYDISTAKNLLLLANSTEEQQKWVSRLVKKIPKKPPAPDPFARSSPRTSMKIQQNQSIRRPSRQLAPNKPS
# Chain of FGFR2 (human) (P21802 whole entry, looked up): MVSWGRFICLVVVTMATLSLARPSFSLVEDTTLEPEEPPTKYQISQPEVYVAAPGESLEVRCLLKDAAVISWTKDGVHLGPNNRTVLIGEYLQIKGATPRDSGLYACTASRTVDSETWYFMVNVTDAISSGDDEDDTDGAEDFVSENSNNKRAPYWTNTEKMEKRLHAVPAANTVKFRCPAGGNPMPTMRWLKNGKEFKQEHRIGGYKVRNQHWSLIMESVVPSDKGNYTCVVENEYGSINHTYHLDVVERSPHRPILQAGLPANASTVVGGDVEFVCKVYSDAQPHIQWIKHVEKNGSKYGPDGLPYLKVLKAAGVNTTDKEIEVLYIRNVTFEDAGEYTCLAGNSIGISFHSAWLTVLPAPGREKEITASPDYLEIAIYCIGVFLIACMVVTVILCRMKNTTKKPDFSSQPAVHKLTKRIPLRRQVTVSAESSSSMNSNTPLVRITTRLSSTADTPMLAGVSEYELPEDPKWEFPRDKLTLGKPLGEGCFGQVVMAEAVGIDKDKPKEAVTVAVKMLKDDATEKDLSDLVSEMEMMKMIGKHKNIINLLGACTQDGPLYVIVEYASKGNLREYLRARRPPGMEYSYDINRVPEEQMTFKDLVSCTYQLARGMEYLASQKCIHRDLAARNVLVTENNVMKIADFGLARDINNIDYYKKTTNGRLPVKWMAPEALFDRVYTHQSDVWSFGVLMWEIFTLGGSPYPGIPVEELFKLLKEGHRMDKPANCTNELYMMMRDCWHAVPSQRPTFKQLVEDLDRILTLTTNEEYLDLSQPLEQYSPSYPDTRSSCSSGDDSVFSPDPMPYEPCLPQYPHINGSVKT
# Chain of FYN (human) (P06241 whole entry, looked up): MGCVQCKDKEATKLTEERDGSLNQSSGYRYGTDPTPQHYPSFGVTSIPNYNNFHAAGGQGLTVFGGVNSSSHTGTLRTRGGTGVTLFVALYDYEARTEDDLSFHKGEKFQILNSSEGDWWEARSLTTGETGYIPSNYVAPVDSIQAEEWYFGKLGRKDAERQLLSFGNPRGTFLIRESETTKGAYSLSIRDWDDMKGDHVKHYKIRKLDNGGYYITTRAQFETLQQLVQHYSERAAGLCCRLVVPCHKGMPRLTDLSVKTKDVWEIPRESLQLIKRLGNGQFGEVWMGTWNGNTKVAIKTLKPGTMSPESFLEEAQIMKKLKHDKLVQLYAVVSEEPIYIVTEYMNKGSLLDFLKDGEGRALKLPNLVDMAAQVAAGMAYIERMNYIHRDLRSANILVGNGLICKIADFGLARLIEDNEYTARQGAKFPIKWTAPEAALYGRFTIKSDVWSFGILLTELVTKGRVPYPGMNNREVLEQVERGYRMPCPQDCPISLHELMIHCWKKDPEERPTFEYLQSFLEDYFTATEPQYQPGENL
# Chain of INSR (human) (P06213 whole entry, looked up): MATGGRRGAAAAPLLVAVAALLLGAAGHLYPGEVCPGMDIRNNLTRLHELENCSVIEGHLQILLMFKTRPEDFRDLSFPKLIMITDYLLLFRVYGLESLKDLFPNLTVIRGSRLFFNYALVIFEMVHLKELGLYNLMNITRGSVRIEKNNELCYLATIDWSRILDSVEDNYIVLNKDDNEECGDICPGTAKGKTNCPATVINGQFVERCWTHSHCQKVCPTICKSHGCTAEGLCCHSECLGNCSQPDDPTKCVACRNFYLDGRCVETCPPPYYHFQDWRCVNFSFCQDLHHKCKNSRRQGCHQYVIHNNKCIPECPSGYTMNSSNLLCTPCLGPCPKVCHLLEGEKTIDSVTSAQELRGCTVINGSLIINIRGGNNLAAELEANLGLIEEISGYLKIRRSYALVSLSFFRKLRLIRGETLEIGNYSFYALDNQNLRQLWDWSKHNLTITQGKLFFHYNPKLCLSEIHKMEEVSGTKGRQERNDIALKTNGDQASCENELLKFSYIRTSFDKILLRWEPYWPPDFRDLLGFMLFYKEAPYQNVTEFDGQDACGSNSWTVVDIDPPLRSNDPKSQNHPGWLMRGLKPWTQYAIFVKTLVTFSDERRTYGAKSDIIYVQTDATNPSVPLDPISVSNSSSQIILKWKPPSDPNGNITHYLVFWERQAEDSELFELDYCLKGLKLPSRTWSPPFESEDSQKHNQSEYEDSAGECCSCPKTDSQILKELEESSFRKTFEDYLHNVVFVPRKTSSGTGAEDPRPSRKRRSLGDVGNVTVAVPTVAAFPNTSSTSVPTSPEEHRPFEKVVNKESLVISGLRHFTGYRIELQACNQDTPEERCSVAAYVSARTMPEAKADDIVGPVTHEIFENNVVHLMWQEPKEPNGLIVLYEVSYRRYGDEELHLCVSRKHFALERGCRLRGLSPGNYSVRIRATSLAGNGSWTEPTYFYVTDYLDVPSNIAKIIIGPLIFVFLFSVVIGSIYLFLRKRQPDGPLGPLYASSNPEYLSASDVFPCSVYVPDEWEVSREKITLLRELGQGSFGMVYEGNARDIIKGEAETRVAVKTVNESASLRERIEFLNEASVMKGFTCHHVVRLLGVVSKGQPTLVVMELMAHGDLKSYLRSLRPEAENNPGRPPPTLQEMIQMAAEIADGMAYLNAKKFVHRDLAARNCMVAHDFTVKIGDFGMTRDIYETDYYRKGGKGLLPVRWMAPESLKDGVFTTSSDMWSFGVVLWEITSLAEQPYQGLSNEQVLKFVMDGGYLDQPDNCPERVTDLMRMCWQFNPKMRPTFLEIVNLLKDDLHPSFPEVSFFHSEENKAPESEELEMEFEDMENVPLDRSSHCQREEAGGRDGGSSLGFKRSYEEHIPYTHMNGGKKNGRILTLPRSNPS
# Chain of HCK (human) (P08631 whole entry, looked up): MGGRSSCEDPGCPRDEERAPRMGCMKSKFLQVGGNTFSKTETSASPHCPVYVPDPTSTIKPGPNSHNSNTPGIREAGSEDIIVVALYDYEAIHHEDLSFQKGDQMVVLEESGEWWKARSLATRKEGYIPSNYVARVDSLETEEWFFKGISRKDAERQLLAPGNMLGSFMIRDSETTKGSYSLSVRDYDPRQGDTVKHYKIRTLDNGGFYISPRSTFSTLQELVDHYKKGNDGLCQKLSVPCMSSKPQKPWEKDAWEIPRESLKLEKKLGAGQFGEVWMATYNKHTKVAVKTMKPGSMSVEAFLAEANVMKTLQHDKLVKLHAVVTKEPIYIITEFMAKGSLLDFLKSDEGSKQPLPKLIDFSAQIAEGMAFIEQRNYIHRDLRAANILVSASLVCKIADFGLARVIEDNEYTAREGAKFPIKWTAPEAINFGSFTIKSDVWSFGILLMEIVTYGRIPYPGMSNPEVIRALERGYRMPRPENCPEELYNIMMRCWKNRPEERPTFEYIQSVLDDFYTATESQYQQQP
# Chain of NEK2 (human) (P51955 whole entry, looked up): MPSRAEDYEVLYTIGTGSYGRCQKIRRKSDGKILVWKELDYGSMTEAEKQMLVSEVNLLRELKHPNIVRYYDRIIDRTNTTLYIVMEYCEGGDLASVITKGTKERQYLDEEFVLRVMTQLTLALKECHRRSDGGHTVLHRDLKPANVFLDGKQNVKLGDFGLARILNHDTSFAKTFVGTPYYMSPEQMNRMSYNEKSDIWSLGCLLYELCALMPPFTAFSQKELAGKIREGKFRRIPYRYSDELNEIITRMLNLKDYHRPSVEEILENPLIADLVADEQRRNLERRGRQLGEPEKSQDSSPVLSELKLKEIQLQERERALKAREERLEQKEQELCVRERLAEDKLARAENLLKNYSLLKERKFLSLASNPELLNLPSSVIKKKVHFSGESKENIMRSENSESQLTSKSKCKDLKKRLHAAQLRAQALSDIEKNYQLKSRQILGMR
smiles,measurement,setting,value
Cn1cc(-c2cnc3ccc4ccc(CS(=O)(=O)NC5CCCCC5)cc4c(=O)c3c2)cn1,inhibition,MARK1 (human); compound 0.01 µM,0.6%
same,inhibition,MARK1 (human); compound 0.1 µM,5.5%
same,inhibition,CDK2 (human); compound 0.01 µM,-2.1%
same,inhibition,CDK2 (human); compound 0.1 µM,11.7%
same,inhibition,FGFR2 (human); compound 0.01 µM,0.5%
same,inhibition,FGFR2 (human); compound 0.1 µM,16.5%
same,inhibition,NEK2 (human); compound 0.01 µM,0.9%
same,inhibition,NEK2 (human); compound 0.1 µM,-2.6%
same,inhibition,FYN (human); compound 0.01 µM,-0.7%
same,inhibition,FYN (human); compound 0.1 µM,-3%
same,inhibition,[1]; compound 0.01 µM,2.5%
same,inhibition,[1]; compound 0.1 µM,7.6%
same,inhibition,PRKCB2 (human); compound 0.01 µM,1.4%
same,inhibition,PRKCB2 (human); compound 0.1 µM,5.7%
same,inhibition,HCK (human); compound 0.01 µM,3.5%
same,inhibition,HCK (human); compound 0.1 µM,7.6%
same,inhibition,ABL2 (human); compound 0.01 µM,-2.4%
same,inhibition,ABL2 (human); compound 0.1 µM,-4.3%
same,inhibition,MAP4K4 (human); compound 0.01 µM,-2.1%
same,inhibition,MAP4K4 (human); compound 0.1 µM,9.2%
same,inhibition,PRKCA (human); compound 0.01 µM,-5.5%
same,inhibition,PRKCA (human); compound 0.1 µM,5.2%
same,inhibition,CHEK2 (human); compound 0.01 µM,-2.6%
same,inhibition,CHEK2 (human); compound 0.1 µM,-7.4%
same,inhibition,PRKACA (human); compound 0.01 µM,2.8%
same,inhibition,PRKACA (human); compound 0.1 µM,-0.1%
same,inhibition,PDGFRA (human); compound 0.01 µM,0.2%
same,inhibition,PDGFRA (human); compound 0.1 µM,9%
same,inhibition,INSR (human); compound 0.01 µM,3.1%
same,inhibition,INSR (human); compound 0.1 µM,3.1%
same,inhibition,RPS6KA4 KD1 KD2 (human); compound 0.01 µM,-2.3%
same,inhibition,RPS6KA4 KD1 KD2 (human); compound 0.1 µM,-2.1%
same,inhibition,SGK3 (human); compound 0.01 µM,4.9%
same,inhibition,SGK3 (human); compound 0.1 µM,17.7%
same,inhibition,PRKCH (human); compound 0.01 µM,-2.5%
same,inhibition,PRKCH (human); compound 0.1 µM,-14.9%
same,inhibition,[2]; compound 0.01 µM,0.6%
same,inhibition,[2]; compound 0.1 µM,0.3%
same,inhibition,PRKD1 (human); compound 0.01 µM,-2.4%
same,inhibition,PRKD1 (human); compound 0.1 µM,11.3%
same,inhibition,TSSK1B (human); compound 0.01 µM,-3.1%
same,inhibition,TSSK1B (human); compound 0.1 µM,1.9%
same,inhibition,ROCK2 (human); compound 0.01 µM,6.2%
same,inhibition,ROCK2 (human); compound 0.1 µM,21.2%
same,inhibition,SGK1 (human); compound 0.01 µM,2.1%
same,inhibition,SGK1 (human); compound 0.1 µM,9.1%
same,inhibition,MAPK1 (human); compound 0.01 µM,-10.5%
same,inhibition,MAPK1 (human); compound 0.1 µM,-4.8%
same,inhibition,ABL1 (human); compound 0.01 µM,3.8%
same,inhibition,ABL1 (human); compound 0.1 µM,3.4%
same,inhibition,[3]; compound 0.01 µM,-3.9%
same,inhibition,[3]; compound 0.1 µM,12.4%
same,inhibition,DYRK1A (human); compound 0.01 µM,-1%
same,inhibition,DYRK1A (human); compound 0.1 µM,6.4%
same,inhibition,PRKCB1 (human); compound 0.01 µM,-6%
same,inhibition,PRKCB1 (human); compound 0.1 µM,1.4%
same,inhibition,RPS6KB1 (human); compound 0.01 µM,8%
same,inhibition,RPS6KB1 (human); compound 0.1 µM,4.2%
same,inhibition,PIM1 (human); compound 0.01 µM,-11.4%
same,inhibition,PIM1 (human); compound 0.1 µM,-4.6%
same,inhibition,AURKA (human); compound 0.01 µM,5.8%
same,inhibition,AURKA (human); compound 0.1 µM,6.9%
same,inhibition,CAMK2B (human); compound 0.01 µM,4.4%
same,inhibition,CAMK2B (human); compound 0.1 µM,-5.2%
same,inhibition,CAMK4 (human); compound 0.01 µM,2.1%
same,inhibition,CAMK4 (human); compound 0.1 µM,2.3%
same,inhibition,FER (human); compound 0.01 µM,-1%
same,inhibition,FER (human); compound 0.1 µM,0.2%
O=C(CCc1ccc2ccc3ncc(C4CCNCC4)cc3c(=O)c2c1)NCc1ccccn1,inhibition,MARK1 (human); compound 0.1 µM,-5.4%
same,inhibition,MARK1 (human); compound 1.0 µM,-1.3%
same,inhibition,CDK2 (human); compound 0.1 µM,-10%
same,inhibition,CDK2 (human); compound 1.0 µM,-6.6%
same,inhibition,FGFR2 (human); compound 0.1 µM,1.4%
same,inhibition,FGFR2 (human); compound 1.0 µM,7.8%
same,inhibition,NEK2 (human); compound 0.1 µM,6.6%
same,inhibition,NEK2 (human); compound 1.0 µM,2.7%
same,inhibition,FYN (human); compound 0.1 µM,-4.2%
same,inhibition,FYN (human); compound 1.0 µM,2.7%
same,inhibition,[1]; compound 0.1 µM,-1.7%
same,inhibition,[1]; compound 1.0 µM,8.1%
same,inhibition,PRKCB2 (human); compound 0.1 µM,3.3%
same,inhibition,PRKCB2 (human); compound 1.0 µM,-13.3%
same,inhibition,HCK (human); compound 0.1 µM,-1.8%
same,inhibition,HCK (human); compound 1.0 µM,3.1%
same,inhibition,ABL2 (human); compound 0.1 µM,2.6%
same,inhibition,ABL2 (human); compound 1.0 µM,-3.4%
same,inhibition,MAP4K4 (human); compound 0.1 µM,5%
same,inhibition,MAP4K4 (human); compound 1.0 µM,-0.2%
same,inhibition,PRKCA (human); compound 0.1 µM,-9.4%
same,inhibition,PRKCA (human); compound 1.0 µM,15.8%
same,inhibition,CHEK2 (human); compound 0.1 µM,4.2%
same,inhibition,CHEK2 (human); compound 1.0 µM,1.2%
same,inhibition,PRKACA (human); compound 0.1 µM,2.5%
same,inhibition,PRKACA (human); compound 1.0 µM,4.8%
same,inhibition,PDGFRA (human); compound 0.1 µM,1.5%
same,inhibition,PDGFRA (human); compound 1.0 µM,3.9%
same,inhibition,INSR (human); compound 0.1 µM,5.1%
same,inhibition,INSR (human); compound 1.0 µM,3.5%
same,inhibition,RPS6KA4 KD1 KD2 (human); compound 0.1 µM,-5.8%
same,inhibition,RPS6KA4 KD1 KD2 (human); compound 1.0 µM,1%
same,inhibition,SGK3 (human); compound 0.1 µM,9%
same,inhibition,SGK3 (human); compound 1.0 µM,1%
same,inhibition,PRKCH (human); compound 0.1 µM,7.2%
same,inhibition,PRKCH (human); compound 1.0 µM,-8.7%
same,inhibition,[2]; compound 0.1 µM,2.7%
same,inhibition,[2]; compound 1.0 µM,1.3%
same,inhibition,PRKD1 (human); compound 0.1 µM,7%
same,inhibition,PRKD1 (human); compound 1.0 µM,11%
same,inhibition,TSSK1B (human); compound 0.1 µM,5.4%
same,inhibition,TSSK1B (human); compound 1.0 µM,-1.6%
same,inhibition,ROCK2 (human); compound 0.1 µM,-2.6%
same,inhibition,ROCK2 (human); compound 1.0 µM,4.2%
same,inhibition,SGK1 (human); compound 0.1 µM,-2.2%
same,inhibition,SGK1 (human); compound 1.0 µM,-6%
same,inhibition,MAPK1 (human); compound 0.1 µM,-1.2%
same,inhibition,MAPK1 (human); compound 1.0 µM,3.7%
same,inhibition,ABL1 (human); compound 0.1 µM,-1%
same,inhibition,ABL1 (human); compound 1.0 µM,1.6%
same,inhibition,[3]; compound 0.1 µM,-8.4%
same,inhibition,[3]; compound 1.0 µM,0.9%
same,inhibition,DYRK1A (human); compound 0.1 µM,5.6%
same,inhibition,DYRK1A (human); compound 1.0 µM,-6.7%
same,inhibition,PRKCB1 (human); compound 0.1 µM,1.2%
same,inhibition,PRKCB1 (human); compound 1.0 µM,-12.2%
same,inhibition,RPS6KB1 (human); compound 0.1 µM,10.9%
same,inhibition,RPS6KB1 (human); compound 1.0 µM,-3.3%
same,inhibition,PIM1 (human); compound 0.1 µM,-2.4%
same,inhibition,PIM1 (human); compound 1.0 µM,-4.4%
same,inhibition,AURKA (human); compound 0.1 µM,3.7%
same,inhibition,AURKA (human); compound 1.0 µM,22.4%
same,inhibition,CAMK2B (human); compound 0.1 µM,-1.6%
same,inhibition,CAMK2B (human); compound 1.0 µM,0.8%
same,inhibition,CAMK4 (human); compound 0.1 µM,-1.7%
same,inhibition,CAMK4 (human); compound 1.0 µM,-3.4%
same,inhibition,FER (human); compound 0.1 µM,-14.2%
same,inhibition,FER (human); compound 1.0 µM,0.5%
